Consider 44 compounds from patent publication US7514452B2, “2-furancarboxylic acid hydrazides and pharmaceutical compositions containing the same” (Dainippon Pharmaceutical Co., Ltd, priority 2002, dated 2009).

Data set [1] deals with glucagon receptor (Rattus norvegicus, UniProt P30082). The data set is described as follows: Experiment for glucagon binding inhibition, rat hepatic membrane (125I-glucagon). The note with it: male SD rat hepatic membrane, 125I-glucagon 50 pM, 25° C. for 30 minutes; read-out: Glucagon binding inhibitory activity IC50 (nM) Rat. The protocol: (§1) The preparation of membrane from mouse and rat livers was carried out according to the method described in Bioorg. Med. Chem. Lett. 1992, 12, 915-918 in this experiment and ^125I-glucagon binding activity was measured with these membranes as glucagon receptor's samples. Livers were removed from male SD rats (about 250 g body weight per rat) and male ddY mice (about 30 g body weight per mouse). […] The homogenate was centrifuged for 15 minutes at 30,000×g. […] The precipitaion thus obtained was used as a hepatic membrane sample. […] The mixture was incubated at 25° C. for 30 minutes. […] The filter was washed 3 times with 50 mM Tris-HCl buffer (pH 7.2), and the radioactivity of the filter was measured by a γ counter (ARC-360, Aloka Co., Ltd.). […] Each experiment was carried out in duplicate. […] The concentration at 50% inhibition of binding (IC50) was calculated using a pseudo Hill plot.
Chain of glucagon receptor (Rattus norvegicus, UniProt P30082) (P30082 27-485): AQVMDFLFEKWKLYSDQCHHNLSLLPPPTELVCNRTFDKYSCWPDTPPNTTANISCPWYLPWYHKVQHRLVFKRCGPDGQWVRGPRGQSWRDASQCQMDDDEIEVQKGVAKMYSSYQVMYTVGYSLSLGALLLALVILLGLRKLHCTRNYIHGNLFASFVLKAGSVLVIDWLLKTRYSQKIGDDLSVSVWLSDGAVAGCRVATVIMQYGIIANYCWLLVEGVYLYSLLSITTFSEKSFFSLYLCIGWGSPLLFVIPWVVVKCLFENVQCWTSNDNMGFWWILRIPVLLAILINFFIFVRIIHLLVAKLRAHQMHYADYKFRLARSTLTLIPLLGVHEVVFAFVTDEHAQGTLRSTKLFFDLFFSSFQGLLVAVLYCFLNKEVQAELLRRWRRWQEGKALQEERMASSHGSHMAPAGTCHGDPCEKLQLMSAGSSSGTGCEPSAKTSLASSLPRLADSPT

The target in data set [2] is glucagon receptor (Mus musculus, UniProt Q61606). Briefly: Experiment for glucagon binding inhibition, mouse hepatic membrane (125I-glucagon). The note with it: male ddY mouse hepatic membrane, 125I-glucagon 50 pM, 25° C. for 30 minutes; read-out: Glucagon binding inhibitory activity IC50 (nM) Mouse. As for the experimental part:
as §1

Chain of glucagon receptor (Mus musculus, UniProt Q61606) (Q61606 27-485): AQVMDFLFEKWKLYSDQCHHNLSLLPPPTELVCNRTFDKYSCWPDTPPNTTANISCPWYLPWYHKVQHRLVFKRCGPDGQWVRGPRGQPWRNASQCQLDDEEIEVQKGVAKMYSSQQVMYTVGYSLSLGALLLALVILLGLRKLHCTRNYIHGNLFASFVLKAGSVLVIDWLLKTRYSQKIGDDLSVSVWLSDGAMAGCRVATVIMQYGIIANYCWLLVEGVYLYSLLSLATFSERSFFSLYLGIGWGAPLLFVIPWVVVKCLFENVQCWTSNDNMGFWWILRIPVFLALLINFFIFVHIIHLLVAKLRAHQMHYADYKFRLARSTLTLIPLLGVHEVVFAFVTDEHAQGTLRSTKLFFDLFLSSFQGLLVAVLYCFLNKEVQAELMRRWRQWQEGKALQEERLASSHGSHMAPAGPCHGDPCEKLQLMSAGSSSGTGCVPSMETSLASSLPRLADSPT

As to `Cc1ccc(-c2ccoc2C(=O)NNC(=O)c2ccc(O)c(Cl)c2)cc1`, the melting point – broadly, the temperature, or range, at which the solid turns liquid – lay in the range of 240 to 242 °C.

`Cc1cccc(COc2cccc(-c3ccoc3C(=O)NNC(=O)c3ccc(O)c([N+](=O)[O-])c3)c2)c1` [Example 123, 3-[3-(3-Methylbenzyloxy)phenyl]-2-furancarboxylic acid 2-(4-hydroxy-3-nitrobenzoyl)hydrazide] had a melting point of 144 to 145 °C. Further, in data set [1], the IC50 (commonly the concentration that inhibits the measured activity by half) was 33 nM. For the same compound, the IC50 in data set [2] turned out to be 65 nM.

`O=C(NNC(=O)c1occc1-c1cccc(OCc2cccc3ccccc23)c1)c1ccc(O)c([N+](=O)[O-])c1` [Example 203] had a melting point of 152 to 153 °C. Moreover, in data set [1], the IC50 worked out at 7.9 nM. Moreover, the IC50 in data set [2] came out at 7.7 nM.

Turning to `CCc1c(-c2ccccc2)coc1C(=O)NNC(=O)c1ccc(O)c(C#N)c1`, the melting point was in the range of 190 to 192 °C.

With `O=C(NNC(=O)c1occc1-c1ccccc1)c1ccc(O)c([N+](=O)[O-])c1` [Example 143, 3-Phenyl-2-furancarboxylic acid 2-(4-hydroxy-3-nitrobenzoyl)hydrazide], the melting point lay within 154 to 156 °C. Besides, in data set [1], the IC50 is 89 nM. Also, the IC50 in data set [2] is 56 nM.

On to `COc1ccc(C(=O)NNC(=O)c2occ(-c3ccccc3)c2-c2ccccc2)cc1C#N`, for which the melting point lay in the range of 220 to 225 °C.

Turning to `O=C(NNC(=O)c1occc1-c1cccc(CCc2ccccc2)c1)c1ccc(O)c([N+](=O)[O-])c1` [Example 232], the melting point lay within 149 to 152 °C. Moreover, the IC50 in data set [1] was found to be 38 nM. Also, the IC50 in data set [2] came out at 34 nM.

With `Cc1cccc(COc2ccc(-c3ccoc3C(=O)NNC(=O)c3ccc(O)c([N+](=O)[O-])c3)cc2)c1` [Example 214], the melting point is 162 to 164 °C. The IC50 in data set [1] was determined as 49 nM. Also, the IC50 in data set [2] was determined as 39 nM.

Compound `CCCc1ccc(-c2ccoc2C(=O)NNC(=O)c2ccc(O)c(C(F)(F)F)c2)cc1` [Example 242] yielded a melting point of 112 to 114 °C. Besides, the IC50 in data set [1] was 89 nM. The IC50 in data set [2] turned out to be 180 nM.

`CCCCc1ccc(-c2ccoc2C(=O)NNC(=O)c2ccc(O)c([N+](=O)[O-])c2)cc1` [Example 142, 3-(4-butylphenyl)-2-furancarboxylic acid 2-(4-hydroxy-3-nitrobenzoyl)hydrazide] registered a melting point of 190 to 193 °C. Further, the IC50 in data set [1] was 5.5 nM. Further, the IC50 in data set [2] came out at 9.3 nM.

Take `CC(C)=CCOc1cccc(-c2ccoc2C(=O)NNC(=O)c2ccc(O)c([N+](=O)[O-])c2)c1` [Example 196, 3-[3-(3-Methyl-2-butenyloxy)phenyl]-2-furancarboxylic acid 2-(4-hydroxy-3-nitrobenzoyl)hydrazide]: the melting point was 84 to 85 °C. Also, in data set [1], the IC50 is 40 nM. For the same compound, the IC50 in data set [2] came out at 63 nM.

For `O=C(NNC(=O)c1occ(-c2ccccc2)c1-c1ccccc1)c1cc(Cl)c(O)c(Cl)c1`, the melting point fell in the range of 261 to 263 °C.

On to `CC(C)COc1cccc(-c2ccoc2C(=O)NNC(=O)c2ccc(O)c([N+](=O)[O-])c2)c1` [Example 183, 3-(3-Isobutoxyphenyl)-2-furancarboxylic acid 2-(4-hydroxy-3-nitrobenzoyl)hydrazide], for which the melting point is 98 to 100 °C. For the same compound, in data set [1], the IC50 worked out at 51 nM. For the same compound, the IC50 in data set [2] was 34 nM.

In turn, `CCCCCCOc1cccc(-c2ccoc2C(=O)NNC(=O)c2ccc(O)c([N+](=O)[O-])c2)c1` [Example 184, 3-(3-Hexyloxyphenyl)-2-furancarboxylic acid 2-(4-hydroxy-3-nitrobenzoyl)hydrazide] displayed a melting point of 124 to 126 °C. Further, the IC50 in data set [1] is 18 nM. In addition, the IC50 in data set [2] was 59 nM.

In the case of `COc1ccc(C(=O)NNC(=O)c2occ(-c3ccccc3)c2-c2ccccc2)c(OC)c1`, the melting point was 240 to 242 °C.

Compound `Cc1cc(C)cc(COc2cccc(-c3ccoc3C(=O)NNC(=O)c3ccc(O)c([N+](=O)[O-])c3)c2)c1` [Example 223] registered a melting point of 178 to 180 °C. The IC50 in data set [1] turned out to be 12 nM. Also, the IC50 in data set [2] was found to be 26 nM.

Consider `Cc1cccc(-c2ccoc2C(=O)NNC(=O)c2ccc(O)c([N+](=O)[O-])c2)c1` [Example 145, 3-(3-Methylphenyl)-2-furancarboxylic acid 2-(4-hydroxy-3-nitrobenzoyl)hydrazide], for which the melting point lay within 126 to 128 °C. Besides, in data set [1], the IC50 came out at 100 nM. Moreover, the IC50 in data set [2] was 190 nM.

`CCCCCCCOc1cccc(-c2ccoc2C(=O)NNC(=O)c2ccc(O)c([N+](=O)[O-])c2)c1` [Example 185, 3-(3-Heptyloxyphenyl)-2-furancarboxylic acid 2-(4-hydroxy-3-nitrobenzoyl)hydrazide] yielded a melting point of 141 to 144 °C. The IC50 in data set [1] was 20 nM. Also, the IC50 in data set [2] amounted to 23 nM.

The compound `O=C(NNC(=O)c1occ(-c2ccccc2)c1-c1ccccc1)c1ccc(O)c(-c2ccccc2)c1` yielded a melting point of 217 to 218 °C.

Regarding `CC(C)(C)OC(=O)c1cc(C(=O)NNC(=O)c2occc2-c2ccccc2)ccc1O`, the melting point lay within 147 to 154 °C.

Compound `O=C(NNC(=O)c1occ(-c2ccccc2)c1-c1ccccc1)c1ccc(O)c(O)c1` registered a melting point of 242 to 244 °C.

For `Cc1ccccc1COc1cccc(-c2ccoc2C(=O)NNC(=O)c2ccc(O)c(C#N)c2)c1`, the melting point fell in the range of 178 to 180 °C.

`O=C(NNC(=O)c1occc1-c1ccncc1)c1ccc(O)c([N+](=O)[O-])c1` registered a melting point of 237 °C.

Take `O=C(NNC(=O)c1occc1-c1ccccc1)c1ccc(O)c(C(=O)O)c1`: the melting point is 250 to 251 °C.

The compound `COc1ccc(C(=O)NNC(=O)c2occ(-c3ccccc3)c2-c2ccccc2)cc1OC` showed a melting point of 181 to 184 °C.

As to `C=Cc1coc(C(=O)NNC(=O)c2ccc(O)c(C#N)c2)c1-c1ccccc1`, the melting point was 175 to 177 °C.

The compound `COc1ccc(C(=O)NNC(=O)c2occ(-c3ccccc3)c2-c2ccccc2)cc1Cl` showed a melting point of 203 to 207 °C.

Consider `CC(=O)N(Cc1ccccc1)c1cccc(-c2ccoc2C(=O)NNC(=O)c2ccc(O)c(C#N)c2)c1`, for which the melting point was 221 to 222 °C.

Compound `COc1ccc(C(=O)NNC(=O)c2occ(-c3ccccc3)c2-c2ccccc2)cc1[N+](=O)[O-]` had a melting point of 150 to 158 °C.

In turn, `Cc1cc(C)c(C)c(COc2cccc(-c3coc(C(=O)NNC(=O)c4ccc(O)c([N+](=O)[O-])c4)c3-c3cccc(OCc4c(C)c(C)cc(C)c4C)c3)c2)c1C` had a melting point of 174 to 175 °C.

With `O=C(NNC(=O)c1occ(-c2ccccc2)c1-c1ccccc1)c1ccc(O)cc1O`, the melting point was 285 to 288 °C.

Regarding `O=C(NNC(=O)c1occ(-c2ccccc2)c1-c1ccccc1)c1ccncc1`, the melting point was 115 to 120 °C.

As to `CCc1coc(C(=O)NNC(=O)c2ccc(O)c(C#N)c2)c1-c1ccccc1`, the melting point lay in the range of 186 to 188 °C.

In the case of `O=C(NNC(=O)c1occ(-c2ccccc2)c1-c1ccccc1)c1ccccn1`, the melting point was in the range of 190 to 192 °C.

In turn, `O=C(NNC(=O)c1occ(-c2ccccc2)c1-c1ccccc1)c1cccs1` gave a melting point of 132 to 135 °C.

As for `CC(=O)Nc1ccccc1COc1cccc(-c2ccoc2C(=O)NNC(=O)c2ccc(O)c([N+](=O)[O-])c2)c1` [Example 179, 3-[3-(2-Acetylaminobenzyloxy)phenyl]-2-furancarboxylic acid 2-(4-hydroxy-3-nitrobenzoyl)hydrazide], the IC50 turned out to be 63 nM in data set [1] and 28 nM in data set [2].

Regarding `N#Cc1cc(C(=O)NNC(=O)c2occ(-c3ccccc3)c2-c2ccccc2)ccc1O` [Example 18, 3,4-diphenyl-2-furancarboxylic acid 2-(3-cyano-4-hydroxybenzoyl)hydrazide], the IC50 in data set [1] came out at 41 nM; in data set [2], 120 nM.

With `CS(=O)(=O)Oc1cccc(-c2ccoc2C(=O)NNC(=O)c2ccc(O)c([N+](=O)[O-])c2)c1`, the melting point was 170 to 171 °C.

For `Cc1cc(C)c(C)c(COc2cccc(-c3c(-c4ccccc4)coc3C(=O)NNC(=O)c3ccc(O)c(C#N)c3)c2)c1C` [Example 98, 4-phenyl-3-[3-(2,3,5,6-tetramethylbenzyloxy)phenyl]-2-furancarboxylic acid 2-(3-cyano-4-hydroxybenzoyl)hydrazide], the IC50 in data set [1] came out at 1.5 nM; in data set [2], 4 nM.

Regarding `N#Cc1cc(C(=O)NNC(=O)c2occc2-c2cccc(NC(=O)OCc3ccccc3)c2)ccc1O`, the melting point is 179 to 181 °C.

With `O=C(NNC(=O)c1occ(-c2ccccc2)c1-c1ccccc1)c1ccc(O)c(Cl)c1`, the melting point was 197 to 199 °C.

`N#Cc1cc(C(=O)NNC(=O)c2occc2-c2ccccc2)ccc1O` [Example 61, 3-phenyl-2-furancarboxylic acid 2-(3-cyano-4-hydroxybenzoyl)hydrazide]: the IC50 was 58 nM in data set [1] and 200 nM in data set [2].

Consider `N#Cc1cc(C(=O)NNC(=O)c2occc2-c2cccc(OCc3ccccc3)c2)ccc1O` [Example 3, 3-(3-benzyloxyphenyl)-2-furancarboxylic acid 2-(3-cyano-4-hydroxybenzoyl)hydrazide], for which the IC50 in data set [1] is 30 nM; in data set [2], 52 nM.

The compound `COc1c(Cl)cc(C(=O)NNC(=O)c2occ(-c3ccccc3)c2-c2ccccc2)cc1Cl` returned a melting point of 229 to 230 °C.
